Test results reported in patent publication US5914339A, “Substituted 1,3-benzodioxoles” (American Home Products Corporation, priority 1997, dated 1999).
Counter-ions that a name gives are not always drawn.

These molecules were tested against human β2 adrenergic receptor (Homo sapiens, UniProt P07550) (assay: cell-based). Conditions: not given.
Chain of human β2 adrenergic receptor (P07550 whole entry): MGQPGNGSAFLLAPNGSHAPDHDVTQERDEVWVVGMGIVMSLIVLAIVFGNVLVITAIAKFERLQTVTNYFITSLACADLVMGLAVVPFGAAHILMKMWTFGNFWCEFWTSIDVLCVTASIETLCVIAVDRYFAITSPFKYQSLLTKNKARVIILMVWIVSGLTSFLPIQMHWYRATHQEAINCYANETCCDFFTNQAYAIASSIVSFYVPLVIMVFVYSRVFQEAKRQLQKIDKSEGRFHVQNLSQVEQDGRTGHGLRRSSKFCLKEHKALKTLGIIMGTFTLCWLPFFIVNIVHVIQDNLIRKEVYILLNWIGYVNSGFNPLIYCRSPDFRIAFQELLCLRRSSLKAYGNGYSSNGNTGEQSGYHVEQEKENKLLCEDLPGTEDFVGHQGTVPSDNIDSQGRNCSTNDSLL
Description: The activity of the test compounds on human β-adrenergic receptors was determined with Chinese hamster ovary (CHO) cells transfected with human β2, or β1 adrenergic receptors. Agonist activity is indicated by increased cAMP levels in the CHO cells. Selectivity of the test compounds for the β3 receptor was assessed by comparison with results in β2 and β1 adrenergic receptor transfected cells.
1). Chinese hamster ovary (CHO) cells transfected with human β2, or β1 adrenergic receptors were used in the assay.
2). Cells were grown to confluent conditions in 24 well plates.
3). Drugs were dissolved in DMSO at a concentration of 10 μM.
4). Cells were incubated with drug at 10 nM concentration for 10 min at 37° C.
5). Cell cAMP concentrations were assayed using a scintillation proximity assay kit from Amersham Corp., Chicago, Ill.
6). Activities for the test compounds are expressed as a percentage of the isoproterenol response.
Production of the CHO cells transfected with human β2, or β1 adrenergic receptors, and compound test procedures utilizing the CHO cells, are described by Emorine et al. in their article "Molecular Characterization of the Human Beta3 -Adrenergic Receptor", Science 1989, 245(8), 1118-1121 and by Muzzin et al. in the article "An Adipose Tissue-Specific Beta3 -Adrenergic Receptor", J. Biol. Chem.1991, 266, 24053-24058.
^a Human β receptors expressed in Chinese hamster ovary cells,
compounds tested at 10 nM, results expressed as % of isoproterenol
activity (increase in cAMP) at 10 μM. EC50 (μM) values
determined for selected compounds.
CC(Cc1ccc2c(c1)OC(C(=O)O)(C(=O)OC(C)C)O2)NCC(O)c1cccc(Cl)c1 (centres unmarked) [Example 22, 5-{2-[2-(3-Chloro-phenyl)-2-hydroxy-ethylamino]-propyl}-benzo[1,3]dioxole-2,2-dicarboxylic acid isopropyl ester] showed an EC50 of 15 nM.

Same assay, conditions: 10 min; compounds tested at 10 nM, isoproterenol at 10 μM; CHO cells, 10 min at 37° C; read-out: β2: % of isoproterenol activity (increase in cAMP)
Molecule CC(Cc1ccc2c(c1)OC(C(=O)OCCOC(C)(C)C)(C(=O)OCCOC(C)(C)C)O2)NCC(O)c1cccc(Cl)c1 (centres unmarked) [Example 6, 5-{2-[2-(3-Chloro-phenyl)-2-hydroxy-ethylamino]-propyl}-benzo[1,3]dioxole-2,2-dicarboxylic acid bis-(2-tert-butoxy-ethyl) ester] has an activation at 0.01 µM of 3%. Molecule CC(Cc1ccc2c(c1)OC(C(=O)O)(C(=O)OCCOC(C)(C)C)O2)NCC(O)c1cccc(Cl)c1 (centres unmarked) [Example 7, 5-{2-[2-(3-Chloro-phenyl)-2-hydroxy-ethylamino]-propyl}-benzo[1,3]dioxole-2,2-dicarboxylic acid (2-tert-butoxy-ethyl) ester] has an activation at 0.01 µM of 2%. CC(C)COCCOC(=O)C1(C(=O)OCCOCC(C)C)Oc2ccc(CC(C)NCC(O)c3cccc(Cl)c3)cc2O1 (centres unmarked) [Example 8, 5-{2-[2-(3-Chloro-phenyl)-2-hydroxy-ethylamino]-propyl}-benzo[1,3]dioxole-2,2-dicarboxylic acid bis-(2-isobutoxy-ethyl) ester] showed an activation at 0.01 µM of 1%. CCCCCCCCOC(=O)C1(C(=O)OCCCCCCCC)Oc2ccc(CC(C)NCC(O)c3cccc(Cl)c3)cc2O1 (centres unmarked) [Example 12, 5-{2-[2-(3-Chloro-phenyl)-2-hydroxy-ethylamino]-propyl}-benzo[1,3]dioxole-2,2-dicarboxylic acid dioctyl ester] showed an activation at 0.01 µM of 1%. For CCCCCCOC(=O)C1(C(=O)OCCCCCC)Oc2ccc(CC(C)NCC(O)c3cccc(Cl)c3)cc2O1 (centres unmarked) [Example 14, 5-{2-[2-(3-Chloro-phenyl)-2-hydroxy-ethylamino]-propyl}-benzo[1,3]dioxole-2,2-dicarboxylic acid dihexyl ester], the activation at 0.01 µM was 5%. CCCCCCCCCOC(=O)C1(C(=O)OCCCCCCCCC)Oc2ccc(CC(C)NCC(O)c3cccc(Cl)c3)cc2O1 (centres unmarked) [Example 18, 5-{2-[2-(3-Chloro-phenyl)-2-hydroxy-ethylamino]-propyl}-benzo[1,3]dioxole-2,2-dicarboxylic acid dinonyl ester] showed an activation at 0.01 µM of 6%. In the case of CCCCCCCCCCOC(=O)C1(C(=O)OCCCCCCCCCC)Oc2ccc(CC(C)NCC(O)c3cccc(Cl)c3)cc2O1 (centres unmarked) [Example 19, 5-{2-[2-(3-Chloro-phenyl)-2-hydroxy-ethylamino]-propyl}-benzo[1,3]dioxole-2,2-dicarboxylic acid bis-decyl ester], the activation at 0.01 µM is reported as 2%. For CCCCCCCCCCCCOC(=O)C1(C(=O)OCCCCCCCCCCCC)Oc2ccc(CC(C)NCC(O)c3cccc(Cl)c3)cc2O1 (centres unmarked) [Example 20, 5-{2-[2-(3-Chloro-phenyl)-2-hydroxy-ethylamino]-propyl}-benzo[1,3]dioxole-2,2-dicarboxylic acid didodecyl ester], the activation at 0.01 µM was 0%. Molecule CCCOC(=O)COC(=O)C1(C(=O)OCC(=O)OCCC)Oc2ccc(CC(C)NCC(O)c3cccc(Cl)c3)cc2O1 (centres unmarked) [Example 25, 5-{2-[2-(3-Chloro-phenyl)-2-hydroxy-ethylamino]-propyl}-benzo[1,3]dioxole-2,2-dicarboxylic acid bis-propoxycarbonylmethyl ester] has an activation at 0.01 µM of 6%. COC(=O)C(C)OC(=O)C1(C(=O)OC(C)C(=O)OC)Oc2ccc(CC(C)NCC(O)c3cccc(Cl)c3)cc2O1 (centres unmarked) [Example 26, 5-{2-[2-(3-Chloro-phenyl)-2-hydroxy-ethylamino]-propyl}-benzo[1,3]dioxole-2,2-dicarboxylic acid bis-(1-methoxycarbonyl-ethyl) ester] gave an activation at 0.01 µM of 7%. CC(Cc1ccc2c(c1)OC(C(=O)OCC(=O)OC(C)C)(C(=O)OCC(=O)OC(C)C)O2)NCC(O)c1cccc(Cl)c1 (centres unmarked) [Example 27, 5-{2-[2-(3-Chloro-phenyl)-2-hydroxy-ethylamino]-propyl}-benzo[1,3]dioxole-2,2-dicarboxylic acid bis-isopropoxycarbonylmethyl ester] gave an activation at 0.01 µM of 5%. Molecule CCOC(=O)COC(=O)C1(C(=O)OCC(=O)OCC)Oc2ccc(CC(C)NCC(O)c3cccc(Cl)c3)cc2O1 (centres unmarked) [Example 28, 5-{2-[2-(3-Chloro-phenyl)-2-hydroxy-ethylamino]-propyl}-benzo[1,3]dioxole-2,2-dicarboxylic acid bis-ethoxycarbonylmethyl ester] has an activation at 0.01 µM of 2%. With CCOC(=O)C(C)OC(=O)C1(C(=O)OC(C)C(=O)OCC)Oc2ccc(CC(C)NCC(O)c3cccc(Cl)c3)cc2O1 (centres unmarked) [Example 29, 5-{2-[2-(3-Chloro-phenyl)-2-hydroxy-ethylamino]-propyl}-benzo[1,3]dioxole-2,2-dicarboxylic acid bis-(1-ethoxycarbonyl-ethyl) ester] the activation at 0.01 µM was 2%. CC(Cc1ccc2c(c1)OC(C(=O)OCC1CCCCC1)(C(=O)OCC1CCCCC1)O2)NCC(O)c1cccc(Cl)c1 (centres unmarked) [Example 34, 5-{2-[2-(3-Chloro-phenyl)-2-hydroxy-ethylamino]-propyl}-benzo[1,3]dioxole-2,2-dicarboxylic acid bis-cyclohexylmethyl ester] was tested, and the activation at 0.01 µM was 2%. In the case of CC(C)CCCOC(=O)C1(C(=O)OCCCC(C)C)Oc2ccc(CC(C)NCC(O)c3cccc(Cl)c3)cc2O1 (centres unmarked) [Example 35, 5-{2-[2-(3-Chloro-phenyl)-2-hydroxy-ethylamino]-propyl}-benzo[1,3]dioxole-2,2-dicarboxylic acid bis-(4-methyl-pentyl) ester], the activation at 0.01 µM is reported as 4%. CC(Cc1ccc2c(c1)OC(C(=O)OCCC1CCCCC1)(C(=O)OCCC1CCCCC1)O2)NCC(O)c1cccc(Cl)c1 (centres unmarked) [Example 36, 5-{2-[2-(3-Chloro-phenyl)-2-hydroxy-ethylamino]-propyl}-benzo[1,3]dioxole-2,2-dicarboxylic acid bis-(2-cyclohexyl-ethyl) ester] gave an activation at 0.01 µM of 2%. In the case of CC(Cc1ccc2c(c1)OC(C(=O)OCCCC1CCCC1)(C(=O)OCCCC1CCCC1)O2)NCC(O)c1cccc(Cl)c1 (centres unmarked) [Example 37, 5-{2-[2-(3-Chloro-phenyl)-2-hydroxy-ethylamino]-propyl}-benzo[1,3]dioxole-2,2-dicarboxylic acid bis-(3-cyclopentyl-propyl) ester], the activation at 0.01 µM is reported as 3%.

Same assay, conditions: CHO, 10 min, read-out: β2: % of isoproterenol activity (increase in cAMP)
COCCOC(=O)C1(C(=O)OCCOC)Oc2ccc(CC(C)NCC(O)c3cccc(Cl)c3)cc2O1 (centres unmarked) [Example 1, 5-{2-[2-(3-Chloro-phenyl)-2-hydroxy-ethylamino]-propyl}-benzo[1,3]dioxole-2,2-dicarboxylic acid bis-(2-methoxy-ethyl) ester hydrochloride salt] was tested, and the activation at 0.01 µM was 4%. CCCCOCCOC(=O)C1(C(=O)OCCOCCCC)Oc2ccc(CC(C)NCC(O)c3cccc(Cl)c3)cc2O1 (centres unmarked) [Example 3, 5-{2-[2-(3-Chloro-phenyl)-2-hydroxy-ethylamino]-propyl}-benzo[1,3]dioxole-2,2-dicarboxylic acid bis-(2-butoxy-ethyl) ester hydrochloride salt] showed an activation at 0.01 µM of 0%. CC(Cc1ccc2c(c1)OC(C(=O)OCCOc1ccccc1)(C(=O)OCCOc1ccccc1)O2)NCC(O)c1cccc(Cl)c1 (centres unmarked) [Example 4, 5-{2-[2-(3-Chloro-phenyl)-2-hydroxy-ethylamino]-propyl}-benzo[1,3]dioxole-2,2-dicarboxylic acid bis-(2-phenoxy-ethyl) ester hydrochloride salt] gave an activation at 0.01 µM of 1%. CCOCCOC(=O)C1(C(=O)OCCOCC)Oc2ccc(CC(C)NCC(O)c3cccc(Cl)c3)cc2O1 (centres unmarked) [Example 5, 5-{2-[2-(3-Chloro-phenyl)-2-hydroxy-ethylamino]-propyl}-benzo[1,3]dioxole-2,2-dicarboxylic acid bis-(2-ethoxy-ethyl) ester hydrochloride salt] showed an activation at 0.01 µM of 4%. With CC(Cc1ccc2c(c1)OC(C(=O)OCc1ccccc1)(C(=O)OCc1ccccc1)O2)NCC(O)c1cccc(Cl)c1 (centres unmarked) [Example 9, 5-{2-[2-(3-Chloro-phenyl)-2-hydroxy-ethylamino]-propyl}-benzo[1,3]dioxole-2,2-dicarboxylic acid bis-(benzyl) ester hydrochloride salt] the activation at 0.01 µM was 16%. CC(Cc1ccc2c(c1)OC(C(=O)OC1CCCCC1)(C(=O)OC1CCCCC1)O2)NCC(O)c1cccc(Cl)c1 (centres unmarked) [Example 10, 5-{2-[2-(3-Chloro-phenyl)-2-hydroxy-ethylamino]-propyl}-benzo[1,3]dioxole-2,2-dicarboxylic acid bis-(cyclohexyl) ester hydrochloride salt] was tested, and the activation at 0.01 µM was 0%. In the case of CC(Cc1ccc2c(c1)OC(C(=O)OC[Si](C)(C)C)(C(=O)OC[Si](C)(C)C)O2)NCC(O)c1cccc(Cl)c1 (centres unmarked) [Example 30, 5-{2-[2-(3-Chloro-phenyl)-2-hydroxy-ethylamino]-propyl}-benzo[1,3]dioxole-2,2-dicarboxylic acid bis-trimethylsilanylmethyl ester], the activation at 0.01 µM is reported as 0%. CC(Cc1ccc2c(c1)OC(C(=O)OCCC[Si](C)(C)C)(C(=O)OCCC[Si](C)(C)C)O2)NCC(O)c1cccc(Cl)c1 (centres unmarked) [Example 32, 5-{2-[2-(3-Chloro-phenyl)-2-hydroxy-ethylamino]-propyl}-benzo[1,3]dioxole-2,2-dicarboxylic acid bis-(3-trimethylsilanyl-propyl) ester] showed an activation at 0.01 µM of 2%.
